# Reference: US20250270222A1, “AP2 ASSOCIATED KINASE 1 INHIBITORS AND USES THEREOF” (Satellos Bioscience Inc., priority 2023, published 2025)
# Experiments:
# [1] = target: AAK1 (amino acids T27-A365) (Homo sapiens (Human), UniProt Q2M2I8); assay: AAK1 pSENs assay; type: biochemical; settings: for AAK1:GAK pSENs Selectivity: ratio of AAK1 pSENs activity to GAK pSENs activity; for IC50: read-out: AAK1 pSENs:EIC50
# In short: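 Untagged, biotinylated E. coli-expressed AAK1 at 20 nM preincubated with compound 15 min at 25° C in HEPES pH 7.5 buffer with 10 mM MgCl2 and 1 mM DTT. Reaction started with AQT0759 and ATP, added as 30 uM and 70 uM solutions in equal volume.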
# AAK1 = AAK1 (Homo sapiens (Human), UniProt Q2M2I8); assay: pAP2M1 cell-based assay (In-Cell Western); settings: Hela cells co-transfected with AP2M1 and AAK1, 3 hr treatment, Phospho-AP2M1 (Thr156)
# Description: pAP2M1 Cell-Based Assay (In-Cell Western):
# The plate was read on Licor Odyssey CLx imaging system (LICOR) to acquire fluorescence intensity at 700 channel and 800 channel.
# Data analysis: Fluorescence intensity at 700 channel served as internal standard and 800 channel were normalized with 700 channel.
# [2] = target: BIKE (amino acids S38-E345) (K320A, K321A) (Homo sapiens (Human), UniProt Q9NSY1, K320A/K321A); assay: BIKE pSENs assay; type: biochemical
# Experimental: The recombinant proteins were independently expressed in Esherichia coli BL21(DE3) cells cultured in Luria-Bertani (LB) medium until OD600 reached 0.6-0.8, then cooled to 15° C., and supplemented with 0.5 mM isopropyl 1-thio-D-galactopyranoside (IPTG) induce protein expression 16 h. Cells were harvested and resuspended in lysis buffer (50 mM HEPES pH 7.5, 500 mM NaCl, 5 mM imidazole, 5% glycerol, 0.5 mM Tris (2-carboxyethyl) phosphine (TCEP), cOmplete Protease Inhibitor Tablet (Roche)) and lysed by microfluidics high pressure homogenizer (UH-06, Union-Biotech). Proteins were purified using Ni-Affinity chromatography (His FF column, Bestchrom) and eluted stepwise in binding buffer with 20-300 mM imidazole. Removal of the hexahistidine tag was performed at 4° C. overnight using recombinant TEV protease and reacted with BirA to obtain the corresponding biotinylated-AAK1. BIKE or GAK proteins. Further separated in the reverse Strep column (Strep-Tactin® XT, IBA). The Biotin elution sample was collected containing untagged biotinylated protein was then purified by Ion-exchange chromatography (Mono Q 10/100 GL, Cytiva) and Size-exclusion chromatography (HiLoad 16/600 Superdex 200 pg, Cytiva). The pure protein was stored in a storage buffer 50 mM HEPES (pH 7.5), 300 mM NaCl, 5% glycerol at −80° C. Protein were characterized by SDS-PAGE. LC-MS and aSEC.
# BIKE protein was dissolved at 20 nM in 1× enzyme solution (50 mM HEPES pH7.5, 10 mM MgCl2, 1 mM DTT, 1% glycerol, 0.5 mM EGTA, 0.01% Briji35, 0.02% BSA) and 12.5 ul was incubated with 250 nl DMSO or 250 nl compound in DMSO at 25° C. for 15 min. The reaction was started by addition of 12.5 ul of 30 uM AQT0759 (Assayquant, CSKS-AQT0759B) and 40 uM ATP which were diluted in 1× substrate dilution buffer (50 mM HEPES pH7.5, 10 mM MgCl2. 1 mM DTT, 1% glycerol, 0.5 mM EGTA, 0.01% Briji35).
# [3] = target: GAK (amino acids Q25-N335) (Homo sapiens (Human), UniProt O14976); assay: GAK pSENs assay; type: biochemical
# Chain of GAK (amino acids Q25-N335) (O14976 25-335): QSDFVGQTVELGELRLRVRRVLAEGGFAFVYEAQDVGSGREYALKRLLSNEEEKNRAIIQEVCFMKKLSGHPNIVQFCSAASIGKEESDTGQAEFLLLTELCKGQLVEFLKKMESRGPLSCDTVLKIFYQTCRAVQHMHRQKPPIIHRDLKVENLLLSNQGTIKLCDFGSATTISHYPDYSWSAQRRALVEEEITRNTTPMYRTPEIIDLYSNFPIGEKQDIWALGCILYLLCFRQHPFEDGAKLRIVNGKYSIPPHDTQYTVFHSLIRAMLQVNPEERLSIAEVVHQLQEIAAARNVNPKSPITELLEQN
# Chain of BIKE (amino acids S38-E345) (K320A, K321A) (Q9NSY1 38-345 K320A/K321A): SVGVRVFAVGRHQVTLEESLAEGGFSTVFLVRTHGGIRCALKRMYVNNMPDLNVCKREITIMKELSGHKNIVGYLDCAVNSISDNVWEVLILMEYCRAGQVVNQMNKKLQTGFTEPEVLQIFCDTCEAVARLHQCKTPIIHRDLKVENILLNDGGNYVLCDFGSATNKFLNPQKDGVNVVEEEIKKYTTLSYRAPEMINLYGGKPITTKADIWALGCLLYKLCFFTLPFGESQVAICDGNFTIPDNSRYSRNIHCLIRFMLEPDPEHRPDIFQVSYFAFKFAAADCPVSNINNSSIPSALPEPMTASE
# Chain of AAK1 (amino acids T27-A365) (Q2M2I8 27-365): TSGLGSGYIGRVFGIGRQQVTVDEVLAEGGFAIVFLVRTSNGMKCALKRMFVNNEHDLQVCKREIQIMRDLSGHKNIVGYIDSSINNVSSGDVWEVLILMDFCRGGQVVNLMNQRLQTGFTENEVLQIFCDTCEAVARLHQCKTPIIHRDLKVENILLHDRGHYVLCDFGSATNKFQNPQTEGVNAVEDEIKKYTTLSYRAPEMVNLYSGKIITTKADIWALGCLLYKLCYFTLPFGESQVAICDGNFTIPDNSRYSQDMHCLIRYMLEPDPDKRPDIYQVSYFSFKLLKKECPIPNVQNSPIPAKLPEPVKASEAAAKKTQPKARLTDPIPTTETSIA
# Chain of AAK1 (Q2M2I8 whole entry): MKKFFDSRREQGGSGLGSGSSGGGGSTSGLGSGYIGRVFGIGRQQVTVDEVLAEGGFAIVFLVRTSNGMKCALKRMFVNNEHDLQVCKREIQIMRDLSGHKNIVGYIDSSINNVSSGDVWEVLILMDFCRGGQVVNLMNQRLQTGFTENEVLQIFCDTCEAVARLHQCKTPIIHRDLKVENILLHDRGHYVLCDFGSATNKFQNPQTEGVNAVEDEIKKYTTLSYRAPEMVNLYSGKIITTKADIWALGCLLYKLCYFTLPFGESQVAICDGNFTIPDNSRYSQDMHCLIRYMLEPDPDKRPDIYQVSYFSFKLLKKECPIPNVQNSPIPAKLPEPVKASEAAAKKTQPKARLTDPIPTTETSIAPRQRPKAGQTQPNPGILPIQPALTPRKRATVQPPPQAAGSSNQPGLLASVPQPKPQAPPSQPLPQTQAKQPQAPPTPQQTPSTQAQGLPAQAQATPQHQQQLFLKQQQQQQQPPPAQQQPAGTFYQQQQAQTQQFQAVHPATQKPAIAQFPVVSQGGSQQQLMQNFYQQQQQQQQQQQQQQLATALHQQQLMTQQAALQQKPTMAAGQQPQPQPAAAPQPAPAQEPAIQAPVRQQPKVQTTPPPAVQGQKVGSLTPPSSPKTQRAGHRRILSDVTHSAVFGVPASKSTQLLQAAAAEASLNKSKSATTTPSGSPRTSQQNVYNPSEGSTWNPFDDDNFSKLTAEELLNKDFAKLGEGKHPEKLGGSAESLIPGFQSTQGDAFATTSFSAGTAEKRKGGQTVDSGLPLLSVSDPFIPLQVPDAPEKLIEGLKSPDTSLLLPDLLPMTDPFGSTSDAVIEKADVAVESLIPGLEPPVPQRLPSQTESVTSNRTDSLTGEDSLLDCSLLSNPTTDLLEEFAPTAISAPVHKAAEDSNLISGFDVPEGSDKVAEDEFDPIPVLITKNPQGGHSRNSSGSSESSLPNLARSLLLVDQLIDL
smiles,measurement,setting,value
"C[C@]1(OC(=O)N2CCN(c3ccn4ncc(-c5cccnc5OC5CC5)c4n3)CC2)CCNC1 (single isomer, unassigned) [Compound I-13]",AAK1:GAK pSENs Selectivity,[1],B (B: 0.016-0.075)
same,IC50,[1],1 to 50 nM
same,IC50,AAK1,1 to 50 nM
same,IC50,[2],1 to 50 nM
same,IC50,[3],51 to 150 nM
"NC(=O)[C@@H]1CN(c2ccn3ncc(-c4cccnc4OC4CC4)c3n2)CCN1C(=O)O[C@@H]1CNC(=O)C1 [Compound I-41-6, (S)-5-Oxopyrrolidin-3-yl-(S)-2-carbamoyl-4-(3-(2-cyclopropoxypyridin-3-yl)pyrazolo[1,5-a]pyrimidin-5-yl)piperazine-1-carboxylate]",AAK1:GAK pSENs Selectivity,[1],B (B: 0.016-0.075)
same,IC50,[2],> 1500 nM
same,IC50,[3],> 1500 nM
"O=C1C[C@H](OC(=O)N2CCN(c3ccn4ncc(-c5cccnc5OC5CNC5)c4n3)CC2)CN1 [Compound I-43, [(3S)-5-Oxopyrrolidin-3-yl]4-[3-[2-(azetidin-3-yloxy)-3-pyridyl]pyrazolo[1,5-a]pyrimidin-5-yl]piperazine-1-carboxylate]",AAK1:GAK pSENs Selectivity,[1],D (D: 0.16-1.00)
same,IC50,[1],> 1500 nM
same,IC50,AAK1,> 1500 nM
same,IC50,[2],> 1500 nM
same,IC50,[3],> 1500 nM
"CN1CC(Oc2ncccc2-c2cnn3ccc(N4CCN(C(=O)O[C@@H]5CNC(=O)C5)CC4)nc23)C1 [Compound I-44, (S)-5-Oxopyrrolidin-3-yl 4-(3-(2-((1-methylazetidin-3-yl)oxy)pyridin-3-yl)pyrazolo[1,5-a]pyrimidin-5-yl)piperazine-1-carboxylate]",AAK1:GAK pSENs Selectivity,[1],D (D: 0.16-1.00)
same,IC50,[2],> 1500 nM
same,IC50,[3],> 1500 nM
"CC(C)Nc1ncccc1-c1cnn2ccc(N3CCN(C(=O)O[C@@H]4CNC(=O)C4)CC3)nc12 [Compound I-47, [(3S)-5-oxopyrrolidin-3-yl]4-[3-[2-(isopropylamino)-3-pyridyl]pyrazolo[1,5-a]pyrimidin-5-yl]piperazine-1-carboxylate]",AAK1:GAK pSENs Selectivity,[1],E (E: >1.00)
same,IC50,[2],> 1500 nM
same,IC50,[3],> 1500 nM
CC(C)(C)OC(=O)N1CC(Nc2ncccc2-c2cnn3ccc(N4CCN(C(=O)O[C@@H]5CNC(=O)C5)CC4)nc23)C1 [Compound I-48],AAK1:GAK pSENs Selectivity,[1],D (D: 0.16-1.00)
same,IC50,[2],> 1500 nM
same,IC50,[3],> 1500 nM
"CN(C)CCN1CC[C@@](C)(OC(=O)N2CCN(c3ccn4ncc(-c5cccnc5OC5CC5)c4n3)CC2)C1 [Compound I-53, (R)-1-(2-(dimethylamino)ethyl)-3-(methylpyrrolidin-3-yl)-4-(3-(2-cyclopropoxypyridin-3-yl)pyrazolo[1,5-a]pyrimidin-5-yl)piperazine-1-carboxylate]",AAK1:GAK pSENs Selectivity,[1],A (A: ≤0.015)
same,IC50,[2],501 to 1500 nM
same,IC50,[3],> 1500 nM
"O=C1C[C@H](OC(=O)N[C@@H]2CCN(c3ccn4ncc(-c5cccnc5OC5CC5)c4n3)C2)CN1 [Compound I-54, [(3S)-5-oxopyrrolidin-3-yl]N-[(3R)-1-[3-[2-(cyclopropoxy)-3-pyridyl]pyrazolo[1,5-a]pyrimidin-5-yl]pyrrolidin-3-yl]carbamate]",AAK1:GAK pSENs Selectivity,[1],C (C: 0.076-0.15)
same,IC50,[2],> 1500 nM
same,IC50,[3],> 1500 nM
"O=C1C[C@H](OC(=O)N[C@H]2CCN(c3ccn4ncc(-c5cccnc5OC5CC5)c4n3)C2)CN1 [Compound I-55, (S)-5-oxopyrrolidin-3-yl ((S)-1-(3-(2-cyclopropoxypyridin-3-yl)pyrazolo[1,5-a]pyrimidin-5-yl)pyrrolidin-3-yl)carbamate]",AAK1:GAK pSENs Selectivity,[1],D (D: 0.16-1.00)
same,IC50,[2],> 1500 nM
same,IC50,[3],> 1500 nM
"C[C@@]1(OC(=O)N[C@@H]2CCN(c3ccn4ncc(-c5cccnc5OC5CC5)c4n3)C2)CCNC1 [Compound I-56, (R)-3-methylpyrrolidin-3-yl ((R)-1-(3-(2-cyclopropoxypyridin-3-yl)pyrazolo[1,5-a]pyrimidin-5-yl)pyrrolidin-3-yl)carbamate]",AAK1:GAK pSENs Selectivity,[1],C (C: 0.076-0.15)
same,IC50,[2],> 1500 nM
same,IC50,[3],> 1500 nM
O=C(O[C@H]1CO[C@H]2OCC[C@H]21)N1CCN(c2ccn3ncc(-c4ccncn4)c3n2)CC1 [Compound I-67],AAK1:GAK pSENs Selectivity,[1],C (C: 0.076-0.15)
same,IC50,[2],> 1500 nM
same,IC50,[3],> 1500 nM
"O=C(O[C@H]1CO[C@H]2OCC[C@H]21)N1CCN(c2ccn3ncc(-c4ccccc4OC4CC4)c3n2)CC1 [Compound I-68, [(3aS,4R,6aR)-2,3,3a, 4,5,6a-hexahydrofuro[2,3-b]furan-4-yl]4-[3-[2-(cyclopropoxy)phenyl]pyrazolo[1,5-a]pyrimidin-5-yl]piperazine-1-carboxylate]",AAK1:GAK pSENs Selectivity,[1],A (A: ≤0.015)
same,IC50,[2],> 1500 nM
same,IC50,[3],> 1500 nM
"COC(=O)N1CC(Oc2ncccc2-c2cnn3ccc(N4CCN(C(=O)O[C@@H]5CC(=O)N(CCOCc6ccccc6)C5)CC4)nc23)C1 [Compound I-84-6, [(3R)-1-(2-benzyloxyethyl)-5-oxo-pyrrolidin-3-yl]-4-[3-[2-(1-methoxycarbonyl-azetidin-3-yl)oxy-3-pyridyl]pyrazolo[1,5-a]pyrimidin-5-yl]piperazine-1-carboxylate]",AAK1:GAK pSENs Selectivity,[1],B (B: 0.016-0.075)
same,IC50,[2],> 1500 nM
same,IC50,[3],> 1500 nM
"COC(=O)N1CC(Oc2ncccc2-c2cnn3ccc(N4CCN(C(=O)O[C@@H]5CC(=O)N(C6COC6)C5)CC4)nc23)C1 [Compound I-85, [(3R)-1-(oxetan-3-yl)-5-oxo-pyrrolidin-3-yl]-4-[3-[2-(1-methoxycarbonylazetidin-3-yl)oxy-3-pyridyl]pyrazolo[1,5-a]pyrimidin-5-yl]piperazine-1-carboxylate]",AAK1:GAK pSENs Selectivity,[1],C (C: 0.076-0.15)
same,IC50,[2],> 1500 nM
same,IC50,[3],> 1500 nM
"Cc1nn2ccc(N3CCN(C(=O)O[C@H]4CC(=O)N(C)C4)CC3)nc2c1-c1cccnc1OC1CC1 [Compound I-108, [(3S)-1-methyl-5-oxo-pyrrolidin-3-yl]-4-[3-[2-(cyclopropoxy)-3-pyridyl]-2-methyl-pyrazolo[1,5-a]pyrimidin-5-yl]piperazine-1-carboxylate]",AAK1:GAK pSENs Selectivity,[1],E (E: >1.00)
same,IC50,[2],> 1500 nM
same,IC50,[3],> 1500 nM
"CN1C[C@@H](OC(=O)N2CCN(c3nc4c(-c5cccnc5OC5CC5)cnn4cc3O)CC2)CC1=O [Compound I-110, [(3S)-1-methyl-5-oxo-pyrrolidin-3-yl]-4-[3-[2-(cyclopropoxy)-3-pyridyl]-6-hydroxy-pyrazolo[1,5-a]pyrimidin-5-yl]piperazine-1-carboxylate]",AAK1:GAK pSENs Selectivity,[1],E (E: >1.00)
same,IC50,[2],> 1500 nM
same,IC50,[3],> 1500 nM
"COc1cn2ncc(-c3cccnc3OC3CC3)c2nc1N1CCN(C(=O)O[C@H]2CC(=O)N(C)C2)CC1 [Compound I-110-9, [(3S)-1-methyl-5-oxo-pyrrolidin-3-yl]-4-[3-[2-(cyclopropoxy)-3-pyridyl]-6-methoxy-pyrazolo[1,5-a]pyrimidin-5-yl]piperazine-1-carboxylate]",AAK1:GAK pSENs Selectivity,[1],E (E: >1.00)
same,IC50,[2],> 1500 nM
same,IC50,[3],> 1500 nM
"Cc1cn2ncc(-c3cccnc3OC3CC3)c2nc1N1CCN(C(=O)O[C@H]2CC(=O)N(C)C2)CC1 [Compound I-111, [(3S)-1-methyl-5-oxo-pyrrolidin-3-yl]-4-[3-[2-(cyclopropoxy)-3-pyridyl]-6-methyl-pyrazolo[1,5-a]pyrimidin-5-yl]piperazine-1-carboxylate]",AAK1:GAK pSENs Selectivity,[1],C (C: 0.076-0.15)
same,IC50,[2],> 1500 nM
same,IC50,[3],> 1500 nM
"CN1C[C@@H](OC(=O)N2CCN(c3nc4c(-c5cccnc5OC5CCCCC5)cnn4cc3F)CC2)CC1=O [Compound I-123, [(3S)-1-methyl-5-oxo-pyrrolidin-3-yl]-4-[3-[2-(cyclohexoxy)-3-pyridyl]-6-fluoro-pyrazolo[1,5-a]pyrimidin-5-yl]piperazine-1-carboxylate]",AAK1:GAK pSENs Selectivity,[1],C (C: 0.076-0.15)
same,IC50,[2],> 1500 nM
same,IC50,[3],> 1500 nM
